The assay addresses T1, full length G2019 human LRRK2 (Homo sapiens, UniProt Q5S007, R50H).
T1 construct: made in house; host or cells: HEK293 6E cells transduced with BacMam virus (virus generated in Sf9 cells)
Kind of assay: Full length G2019 human LRRK2 inhibition mass spectrometry assay. The class given is biochemical. As to conditions: LRRKtide to phospho-LRRKtide conversion, RapidFire MS, 2 mM ATP. The protocol:
a. Full Length G2019 Human LRRK2 Inhibition Mass Spectrometry Assay
This assay for Leucine Rich Repeat Kinase 2 (LRRK2) inhibition is based on the direct measurement of the peptide ‘LRRKtide’ (LRRKtide: RLGRDKYKT*LRQIRQ and “*” refers to the site of phosphorylation.) and phosphorylated ‘LRRKtide’ using a high throughput Rapid Fire mass spectrometry assay. Inhibitors are compounds that reduce the conversion of LRRKtide to phospho-LRRKtide.
• 1) Compounds were dissolved in 100% DMSO at a concentration of 10 mM, and 11-point dose response curves generated using a 1 in 4 serial dilution in DMSO. 100 nL of this dilution series was then added to a 384 well, v bottom polypropylene plate (Greiner 781280), excluding columns 6 and 18. 100 nL of DMSO were added to column 6 to serve as the high control, while column 18 served as the low control containing assay buffer in place of the LRRK2 protein. Assay dilution gave a top final assay concentration of test compound of […] • 2) 5 μL of ‘enzyme solution’ containing 2× final assay concentration of purified recombinant Full length Flag-LRRK2 in assay buffer (50 mM Hepes, pH 7.2, 10 mM MgCl2, 150 mM NaCl, 5% glycerol, 0.0025% Triton X-100 and 1 mM DTT) were added to all wells using a Multidrop Combi dispenser (ThermoFisher Scientifiec), giving a final assay concentration of 25 nM LRRK2 enzyme (final concentration may vary depending on specific activity of different enzyme batches). • 3) 5 μL of substrate solution containing 50 μM LRRKtide peptide substrate and […] was added to all wells of the plate using a Multidrop Combi dispenser giving a final assay concentration of 25 μM LRRKtide peptide and 2 mM ATP. Test plates were then incubated for 1 hour at room temperature. (Incubation may vary depending on rate and linearity of reaction with different enzyme batches). • 4) 50 μl of 1% formic acid in laboratory grade water was added to all wells to quench the reaction, and plates were heat-sealed prior to centrifugation at 1348×g for 10 minutes. Test plates were then analysed on an Agilent RapidFire High Throughput solid phase extraction system coupled to AB Sciex API 4000 triple quadropole mass spectrometer with the following setting:
• Sip Height=2 mm, Aspirate=500 ms, Load time=3000 ms, Elution time=3000 ms, Requilibration=500 ms. • Flow rates: pump 1=1.5 mL/min, pump 2 1.25 mL/min pump 3=0.8 mL/min
Mass Spectrometer Settings: • LRRKtide Detection settings: Q1 mass 644.8 Da, Q3 mass 638.8, declustering potential 76 volts, collision energy 37 volts, CXP 34 volts. • Phospho-LRRKtide Detection settings: Q1 mass 671.4 Da, Q3 mass 638.8, Declustering potential 76 volts, Collision energy 37 volts, CXP 34 volts. • A C4 cartridge was used and running buffers were: A (aqueous) 0.1% formic acid in water B (organic) 0.1% formic acid, 80% acetonitrile, 20% water. • Collision gas: 12, Curtain gas: 25, Ion Source gas (1): 60, Ion Source gas (2): 60, Ion Spray Voltage: 5500, Temperature: 600, Interface Heater: ON. • Resolution Q1: low, Resolution Q3: low. • 5) Data were analysed using ActivityBase software (IDBS). A percent conversion from LRRKtide to Phospho-LRRKtide was calculated using the following formula:
% conversion=(Phospho-LRRKtide product peak area/(Phospho-LRRKtide product peak area+LRRKtide substrate peak area))*100 • A logistic 4 parameter curve fit was applied, using the following formula,
[formula] • Where x is the concentration of test sample, y is inhibition (%), a is the minimum, b is the Hill slope, c is the IC50 and d is the maximum. From this, the pIC50 was derived (−log IC50).

A value given as a limit tells only on which side of the number the result lay.

T1 sequence (Q5S007 with tags, fused parts or gaps R50H): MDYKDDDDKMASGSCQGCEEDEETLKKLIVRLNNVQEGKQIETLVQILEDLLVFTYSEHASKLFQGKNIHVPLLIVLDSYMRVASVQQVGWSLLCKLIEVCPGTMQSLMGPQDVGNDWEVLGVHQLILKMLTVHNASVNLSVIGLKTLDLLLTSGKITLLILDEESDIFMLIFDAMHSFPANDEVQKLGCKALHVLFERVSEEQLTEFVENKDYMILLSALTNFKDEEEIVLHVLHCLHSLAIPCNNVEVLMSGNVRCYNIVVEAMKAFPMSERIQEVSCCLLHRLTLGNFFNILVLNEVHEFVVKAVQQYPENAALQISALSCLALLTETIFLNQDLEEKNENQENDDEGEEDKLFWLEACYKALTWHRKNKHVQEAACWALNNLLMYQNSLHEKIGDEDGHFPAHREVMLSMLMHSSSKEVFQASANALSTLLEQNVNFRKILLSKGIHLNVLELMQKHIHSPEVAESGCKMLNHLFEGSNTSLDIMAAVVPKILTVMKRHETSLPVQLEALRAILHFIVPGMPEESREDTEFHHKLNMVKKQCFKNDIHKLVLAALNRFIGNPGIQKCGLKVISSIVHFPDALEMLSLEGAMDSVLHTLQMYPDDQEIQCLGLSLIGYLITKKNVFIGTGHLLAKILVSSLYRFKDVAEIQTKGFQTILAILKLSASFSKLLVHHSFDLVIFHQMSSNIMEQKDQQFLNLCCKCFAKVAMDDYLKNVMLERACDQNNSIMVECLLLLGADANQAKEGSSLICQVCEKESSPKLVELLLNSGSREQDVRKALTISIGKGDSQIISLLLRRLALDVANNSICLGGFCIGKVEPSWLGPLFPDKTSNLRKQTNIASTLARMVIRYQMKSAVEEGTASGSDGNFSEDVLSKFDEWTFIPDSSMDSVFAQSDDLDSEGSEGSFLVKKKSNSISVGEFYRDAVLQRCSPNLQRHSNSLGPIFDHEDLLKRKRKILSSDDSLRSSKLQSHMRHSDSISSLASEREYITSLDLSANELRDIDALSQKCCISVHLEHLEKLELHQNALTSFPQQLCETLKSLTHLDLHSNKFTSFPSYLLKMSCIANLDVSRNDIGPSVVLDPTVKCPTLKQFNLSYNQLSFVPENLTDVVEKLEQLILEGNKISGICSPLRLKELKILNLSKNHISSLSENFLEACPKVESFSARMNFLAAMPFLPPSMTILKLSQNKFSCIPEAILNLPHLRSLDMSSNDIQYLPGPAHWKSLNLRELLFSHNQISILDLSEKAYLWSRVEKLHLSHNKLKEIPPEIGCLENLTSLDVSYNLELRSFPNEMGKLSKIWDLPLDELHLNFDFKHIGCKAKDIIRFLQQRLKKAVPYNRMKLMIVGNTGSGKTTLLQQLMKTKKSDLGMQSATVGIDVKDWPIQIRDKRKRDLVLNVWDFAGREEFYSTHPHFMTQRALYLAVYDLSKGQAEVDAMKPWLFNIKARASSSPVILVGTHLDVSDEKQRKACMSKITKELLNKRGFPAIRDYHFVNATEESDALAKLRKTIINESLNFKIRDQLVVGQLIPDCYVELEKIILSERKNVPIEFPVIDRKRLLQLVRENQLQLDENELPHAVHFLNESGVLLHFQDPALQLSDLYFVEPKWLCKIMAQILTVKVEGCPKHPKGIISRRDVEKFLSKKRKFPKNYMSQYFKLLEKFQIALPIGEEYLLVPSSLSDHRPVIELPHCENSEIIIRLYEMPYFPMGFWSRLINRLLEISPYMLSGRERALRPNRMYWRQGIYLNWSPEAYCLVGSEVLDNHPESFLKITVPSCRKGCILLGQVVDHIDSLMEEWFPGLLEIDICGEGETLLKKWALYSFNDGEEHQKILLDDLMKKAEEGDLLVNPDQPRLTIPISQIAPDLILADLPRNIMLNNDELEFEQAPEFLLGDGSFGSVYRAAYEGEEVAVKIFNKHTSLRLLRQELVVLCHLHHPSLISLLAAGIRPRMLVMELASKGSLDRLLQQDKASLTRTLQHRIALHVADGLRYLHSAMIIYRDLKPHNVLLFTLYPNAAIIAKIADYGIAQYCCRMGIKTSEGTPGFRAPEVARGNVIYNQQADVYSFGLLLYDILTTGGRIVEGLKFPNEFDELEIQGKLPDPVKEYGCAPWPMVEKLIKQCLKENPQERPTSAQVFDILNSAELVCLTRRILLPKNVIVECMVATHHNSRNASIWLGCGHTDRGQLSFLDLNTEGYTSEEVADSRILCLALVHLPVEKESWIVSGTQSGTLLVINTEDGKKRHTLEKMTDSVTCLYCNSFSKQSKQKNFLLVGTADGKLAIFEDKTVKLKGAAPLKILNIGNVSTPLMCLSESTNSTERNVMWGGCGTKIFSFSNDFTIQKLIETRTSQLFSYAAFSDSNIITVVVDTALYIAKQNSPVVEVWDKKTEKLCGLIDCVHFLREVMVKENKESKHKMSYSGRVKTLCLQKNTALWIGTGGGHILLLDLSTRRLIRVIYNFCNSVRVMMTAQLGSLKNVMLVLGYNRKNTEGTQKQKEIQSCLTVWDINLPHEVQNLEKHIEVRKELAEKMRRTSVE

On to `FC(F)(F)c1c2c(nn1C1CCOCC1)OCCCNc1nc(ncc1Cl)N2` [E424, 14-Chloro-5-(oxan-4-yl)-4-(trifluoromethyl)-8-oxa-2,5,6,12,16,17-hexaazatricyclo[11.3.1.0^3,7]heptadeca-1(16),3,6,13(17),14-pentaene], for which the IC50 (commonly the concentration at which inhibition is half-maximal) was no more than 0.1 µM.

Compound `CCC1CCOc2nn(C3COC3)c(C)c2Nc2ncc(Cl)c(n2)N1` (single isomer, unassigned) [E319, 14-Chloro-11-ethyl-4-methyl-5-(oxetan-3-yl)-8-oxa-2,5,6,12,16,17-hexaazatricyclo[11.3.1.0^3,7]heptadeca-1(16), 3,6,13(17),14-pentaene] showed a concentration for half-maximal inhibition (IC50) of no more than 10 µM.

For `Cc1c2c(nn1C1CCOCC1)OCCC(C)Nc1nc(ncc1C(F)(F)F)N2` (single isomer, unassigned) [E290, 4,11-Dimethyl-5-(oxan-4-yl)-14-(trifluoromethyl) -8-oxa-2,5,6,12,16,17-hexaazatricyclo[11.3.1.0^3,7]heptadeca-1(16),3,6,13(17),14-pentaene], the IC50 was no more than 10 µM.

Take `Cc1c2c(nn1C1CCOCC1)OC(C)CCNc1nc(ncc1Cl)N2` (single isomer, unassigned) [E114, 14-chloro-4,9-dimethyl-5-(oxan-4-yl)-8-oxa-2,5,6,12,16,17-hexaazatricyclo[11.3.1.0^3,7]heptadeca-1(16),3,6,13(17),14-pentaene]: the IC50 was no more than 0.1 µM.

The compound `Cc1c2c(nn1CCN1C[C@H]3C[C@@H]1CO3)OCCC(C)Nc1nc(ncc1Cl)N2` (single isomer, unassigned) [E210] gave an IC50 of no more than 0.1 µM.

Compound `Cc1c2c(nn1CCN1CCC(F)(F)C1)OCCC(C)Nc1nc(ncc1Cl)N2` (single isomer, unassigned) [E214, 14-Chloro-5-[2-(3,3-difluoropyrrolidin-1-yl)ethyl]-4,11-dimethyl-8-oxa-2,5,6,12,16,17-hexaazatricyclo [11.3.1.0^3,7]heptadeca-1(16),3,6,13(17),14-pentaene] gave an IC50 of no more than 10 µM.

The compound `CCC1CCOc2nn(C3CCOCC3)c(C)c2Nc2ncc(Cl)c(n2)N1` (single isomer, unassigned) [E19, 14-chloro-11-ethyl-4-methyl-5-(oxan-4-yl)-8-oxa-2,5,6,12,16,17-hexaazatricyclo[11.3.1.0^3,7]heptadeca-1(16),3,6,13(17),14-pentaene] gave an IC50 of no more than 10 µM.

In turn, `COC(C)c1c2c(nn1C1CCOCC1)OCC[C@@H](C)Nc1nc(ncc1Cl)N2` (stereo partly drawn) [E409, (11R)-14-Chloro-4-(1-methoxyethyl)-11-methyl-5-(oxan-4-yl)-8-oxa-2,5,6,12,16,17-hexaazatricyclo[11.3.1.0^3,7]heptadeca-1(17),3,6,13,15-pentaene] had an IC50 of no more than 10 µM.

In turn, `Cc1c2c(nn1C1CCOCC1C)OCCCNc1nc(ncc1Cl)N2` (single isomer, unassigned) [E141, 14-chloro-4-methyl-5-(3-methyloxan-4-yl)-8-oxa-2,5,6,12,16,17-hexaazatricyclo[11.3.1.0^3,7]heptadeca-1(16),3,6,13(17),14-pentaene] gave an IC50 of no more than 0.1 µM.

`Cc1c2c(nn1C1CCOCC1)OCC[C@H](C)Nc1nc(ncc1Cl)N2` [E7, (11S)-14-Chloro-4,11-dimethyl-5-(oxan-4-yl)-8-oxa-2,5,6,12,16,17-hexaazatricyclo [11.3.1.0^3,7]heptadeca-1(16),3,6,13(17),14-pentaene]: the IC50 is no more than 10 µM.

In turn, `Cc1cnc2nc1N[C@H](C)CCOc1nn(C3CCOCC3)c(C)c1N2` [E296, (11R)-14-Methyl-4,11-dimethyl-5-(oxan-4-yl)-8-oxa-2,5,6,12,16,17-hexaazatricyclo[11.3.1.0^3,7]heptadeca-1(16),3,6,13(17),14-pentaene] showed an IC50 of no more than 10 µM.

`COC1CNc2nc(ncc2Cl)Nc2c(nn(CC3(C)COC3)c2C)OC1` (single isomer, unassigned) [E272, 14-Chloro-10-methoxy-4-methyl-5-[(3-methyloxetan-3-yl)methyl]-8-oxa-2,5,6,12,16,17-hexaazatricyclo [11.3.1.0^3,7]heptadeca-1(16),3,6,13(17),14-pentaene] had an IC50 of no more than 0.1 µM.

For the compound `Cc1c2c(nn1CCN1CCOCC1)OCCC(C)Nc1nc(ncc1Cl)N2` (single isomer, unassigned) [E212, 14-Chloro-4,11-dimethyl-5-[2-(morpholin-4-yl)ethyl]-8-oxa-2,5,6,12,16,17-hexaazatricyclo[11.3.1.0^3,7] heptadeca-1(16),3,6,13(17),14-pentaene], the IC50 is no more than 10 µM.

In turn, `COC1CNc2nc(ncc2C(F)(F)F)Nc2c(nn(C3CCOCC3)c2C)OC1` (single isomer, unassigned) [E120, 10-methoxy-4-methyl-5-(oxan-4-yl)-14-(trifluoromethyl)-8-oxa-2,5,6,12,16,17-hexaazatricyclo[11.3.1.0^3,7] heptadeca-1(16),3,6,13(17),14-pentaene] had an IC50 of no more than 10 µM.

In turn, `Cc1c2c(nn1C1CCOCC1)OCC(C)C(C)Nc1nc(ncc1Cl)N2` (single isomer, unassigned) [E33, 14-chloro-4,10,11-trimethyl-5-(oxan-4-yl)-8-oxa-2,5,6,12,16,17-hexaazatricyclo [11.3.1.0^3,7]heptadeca-1(16),3,6,13(17),14-pentaene] had an IC50 of no more than 10 µM.

Compound `COC1CNc2nc(ncc2Cl)Nc2c(nn(CC3CCOCC3)c2C)OC1` (single isomer, unassigned) [E275, 14-Chloro-10-methoxy-4-methyl-5-(oxan-4-ylmethyl)-8-oxa-2,5,6,12,16,17-hexaazatricyclo[11.3.1.0^3,7] heptadeca-1(16),3,6,13(17),14-pentaene] had an IC50 of no more than 10 µM.

`Cc1c2c(nn1C1CCCOC1)OCC(C)CNc1nc(ncc1Cl)N2` (single isomer, unassigned) [E309, 14-Chloro-4,10-dimethyl-5-(oxan-3-yl)-8-oxa-2,5,6,12,16,17-hexaazatricyclo[11.3.1.0^3,7]heptadeca-1(16),3,6, 13(17),14-pentaene]: the IC50 is no more than 0.1 µM.

`Cc1c2c(nn1C(C)(C)C(N)=O)OCCCNc1nc(ncc1Cl)N2` [E190, 2-{14-Chloro-4-methyl-8-oxa-2,5,6,12,16,17-hexaazatricyclo [11.3.1.0^3,7]heptadeca-1(16),3,6,13(17),14-pentaen-5-yl}-2-methylpropanamide] had an IC50 of no more than 10 µM.

Regarding `Cc1c2c(nn1C1CCC(C)CC1)OCCC(C)Nc1nc(ncc1Cl)N2` (single isomer, unassigned) [E261, 14-Chloro-4,11-dimethyl-5-(4-methylcyclohexyl)-8-oxa-2,5,6,12,16,17-hexaazatricyclo[11.3.1.0^3,7] heptadeca-1(16),3,6,13(17),14-pentaene], the IC50 was no more than 10 µM.

`COCC1CCOc2nn(C3CCOCC3F)c(C)c2Nc2ncc(Cl)c(n2)N1` (single isomer, unassigned) [E353, 14-Chloro-5-(3-fluorooxan-4-yl)-11-(methoxymethyl)-4-methyl-8-oxa-2,5,6,12,16,17-hexaazatricyclo [11.3. 1.0^3,7]heptadeca-1(16),3,6,13(17),14-pentaene] had an IC50 of no more than 0.1 µM.

As to `Cc1c2c(nn1C1CCOC(C)C1)OCCC(C)Nc1nc(ncc1Cl)N2` (single isomer, unassigned) [E84, 14-chloro-4,11-dimethyl-5-(2-methyloxan-4-yl)-8-oxa-2,5,6,12, 16,17-hexaazatricyclo[11.3.1.0^3,7]heptadeca-1(16),3,6,13(17),14-pentaene], the IC50 is no more than 0.1 µM.
